1 compound from patent US8569267B2, “Tetracyclic tetrahydrofuran derivatives containing cyclic amine side chain” (Janssen Pharmaceutica, NV, priority 2005, dated 2013) can be followed below.

Assay [1] addresses T1, human cloned 5-HT2A receptor, expressed in L929 cells (Homo sapiens, UniProt P28223).
T1 construct: expressed in transfected cells; host or cells: L929 cells
Nature of the assay: In vitro binding affinity for 5-HT2A receptor ([125I]R91150 radioligand binding). Conditions: human cloned 5-HT2A receptor in L929 cells, [125I]R91150. A digest of the protocol: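 Competition radioligand binding to human cloned 5-HT2A receptor expressed in L929 cells, using [125I]R91150 with test compound at various concentrations. At equilibrium, receptor-bound radioactivity was separated from free and counted. Affinity reflects inhibition of radioligand binding.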

For assay [2], the target named is T2, human Dopamine D2L receptor (Homo sapiens, UniProt P14416).
T2 construct: expressed in transfected cells; host or cells: CHO cells
Nature of the assay: In vitro binding affinity for human D2L receptor ([3H]Spiperone binding). Conditions: human D2L receptor-transfected CHO cell membranes. A digest of the protocol:
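Membranes from CHO cells transfected with the receptor were incubated with [3H]Spiperone (diluted to 2 nmol/L before addition) and compound for 30 min at 37° C. Buffer was Tris-HCl, pH 7.7, with NaCl, CaCl2, MgCl2 and KCl, and non-specific binding was defined with 10^−6 mol/l Butaclamol. Bound radioactivity was collected by filtration, counted by scintillation, and competition curves calculated as percent specific binding.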

The target in assay [3] is T3, NET (norepinephrine transporter) (Rattus norvegicus, UniProt Q63380).
T3 construct: Cortex from rat brain was collected and homogenised; from tissue; host or cells: rat brain cortex
In words: In vitro determination of NET reuptake inhibition ([3H]Nixosetine binding, rat brain cortex). Conditions: rat brain cortex. A digest of the protocol: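 Rat cortex homogenised in Tris 50 mM, NaCl 120 mM, KCl 5 mM, pH 7.4 was used for competition binding against [3H]nisoxetine. Bound radioligand was collected by filtration on GF/B filters and counted by scintillation. Percentage specific binding and competition curves were derived.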

In assay [4] the target is T4, human cloned 5-HT2C receptor, expressed in CHO cells (Homo sapiens, UniProt P28335).
T4 construct: expressed in transfected cells; host or cells: CHO cells
T4 sequence (P28335 33-458): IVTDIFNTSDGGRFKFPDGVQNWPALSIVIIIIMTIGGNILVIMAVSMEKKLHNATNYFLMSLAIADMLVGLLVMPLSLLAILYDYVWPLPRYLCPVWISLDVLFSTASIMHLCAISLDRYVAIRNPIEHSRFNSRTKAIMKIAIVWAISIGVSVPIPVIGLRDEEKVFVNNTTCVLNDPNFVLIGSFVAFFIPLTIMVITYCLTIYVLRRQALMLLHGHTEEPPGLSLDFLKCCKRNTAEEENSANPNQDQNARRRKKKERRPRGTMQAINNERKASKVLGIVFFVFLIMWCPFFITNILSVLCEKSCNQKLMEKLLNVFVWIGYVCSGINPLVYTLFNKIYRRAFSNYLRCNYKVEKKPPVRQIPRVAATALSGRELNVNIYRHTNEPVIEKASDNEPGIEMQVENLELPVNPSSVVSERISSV
In words: In vitro binding affinity for 5-HT2C receptor ([3H]mesulergine radioligand binding). Conditions: human cloned 5-HT2C receptor. A digest of the protocol:
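Competition radioligand binding: varying test-compound concentrations incubated with receptor preparation and radioligand to binding equilibrium. Bound radioactivity separated from free and counted; affinity inferred from concentration-dependent inhibition of radioligand binding.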

T2 sequence (P14416 whole entry): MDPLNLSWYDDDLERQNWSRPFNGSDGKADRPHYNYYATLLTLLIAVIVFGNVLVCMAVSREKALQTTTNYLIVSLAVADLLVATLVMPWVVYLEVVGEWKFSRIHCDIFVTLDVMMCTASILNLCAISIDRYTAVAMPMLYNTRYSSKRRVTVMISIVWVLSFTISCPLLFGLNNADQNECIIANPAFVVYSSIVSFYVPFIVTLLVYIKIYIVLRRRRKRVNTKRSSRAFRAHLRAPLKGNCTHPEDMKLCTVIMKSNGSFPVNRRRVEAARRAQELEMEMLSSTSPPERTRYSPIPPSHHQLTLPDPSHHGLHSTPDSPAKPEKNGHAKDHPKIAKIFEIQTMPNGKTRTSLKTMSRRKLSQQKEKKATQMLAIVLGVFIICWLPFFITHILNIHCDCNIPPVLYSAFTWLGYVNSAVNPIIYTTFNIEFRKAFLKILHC
T3 sequence (Q63380 1-617): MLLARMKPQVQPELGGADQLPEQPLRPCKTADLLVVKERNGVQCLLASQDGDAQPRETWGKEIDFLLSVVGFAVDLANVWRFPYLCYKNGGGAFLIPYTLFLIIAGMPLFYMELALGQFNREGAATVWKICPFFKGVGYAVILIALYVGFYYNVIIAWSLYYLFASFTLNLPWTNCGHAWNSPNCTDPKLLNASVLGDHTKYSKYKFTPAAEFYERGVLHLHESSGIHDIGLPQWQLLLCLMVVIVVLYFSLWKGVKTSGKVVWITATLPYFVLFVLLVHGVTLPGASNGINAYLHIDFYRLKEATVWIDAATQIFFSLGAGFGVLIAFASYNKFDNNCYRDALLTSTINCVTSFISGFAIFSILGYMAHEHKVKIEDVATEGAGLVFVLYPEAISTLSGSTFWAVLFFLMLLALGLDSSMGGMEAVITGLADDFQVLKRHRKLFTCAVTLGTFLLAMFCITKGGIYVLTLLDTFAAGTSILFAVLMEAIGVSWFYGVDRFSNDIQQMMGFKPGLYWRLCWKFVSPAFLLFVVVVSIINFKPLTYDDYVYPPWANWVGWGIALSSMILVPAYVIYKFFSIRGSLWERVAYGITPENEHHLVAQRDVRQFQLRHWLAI
T1 sequence (P28223 whole entry): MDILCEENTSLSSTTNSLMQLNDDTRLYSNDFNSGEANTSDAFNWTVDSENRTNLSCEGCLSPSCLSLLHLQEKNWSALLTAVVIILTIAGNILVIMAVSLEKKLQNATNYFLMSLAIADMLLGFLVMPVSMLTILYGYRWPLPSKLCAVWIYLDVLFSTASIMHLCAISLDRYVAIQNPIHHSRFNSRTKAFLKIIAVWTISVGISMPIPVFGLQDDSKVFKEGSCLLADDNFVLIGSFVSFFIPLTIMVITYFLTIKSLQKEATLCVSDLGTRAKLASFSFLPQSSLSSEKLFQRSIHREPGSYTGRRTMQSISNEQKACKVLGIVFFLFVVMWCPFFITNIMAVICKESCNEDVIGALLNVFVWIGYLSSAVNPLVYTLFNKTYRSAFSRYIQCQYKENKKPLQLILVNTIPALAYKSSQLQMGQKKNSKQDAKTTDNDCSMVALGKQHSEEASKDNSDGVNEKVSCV

`O=C(O)C(=O)O.OC1CCN(CC2CC3c4ccccc4Oc4ccc(Br)cc4C3O2)CC1` (stereo not shown) [Compound 286]: the “5-HT2A pIC50” value in assay [1] amounted to 8.33. Besides, the “D2L pIC50” value in assay [2] worked out at 7.50. The “NET pIC50” value in assay [3] was below 5. Further, in assay [4], the “5-HT2C pIC50” value is on record as 7.81.
